Source: publication PMC7003794, “Chemical Proteomics and Phenotypic Profiling Identifies the Aryl Hydrocarbon Receptor as a Molecular Target of the Utrophin Modulator Ezutromid” (Angewandte Chemie (International Ed. in English), 2020)

Molecular target: T1, aryl hydrocarbon receptor (AhR) (Mus musculus, UniProt P30561)
T1 construct: purified mouse AhR:ARNT complex; with ARNT
Test: fluorescence quenching assay (intrinsic ligand fluorescence) with purified AhR:ARNT
Format: binding

T1 sequence (P30561 10-848): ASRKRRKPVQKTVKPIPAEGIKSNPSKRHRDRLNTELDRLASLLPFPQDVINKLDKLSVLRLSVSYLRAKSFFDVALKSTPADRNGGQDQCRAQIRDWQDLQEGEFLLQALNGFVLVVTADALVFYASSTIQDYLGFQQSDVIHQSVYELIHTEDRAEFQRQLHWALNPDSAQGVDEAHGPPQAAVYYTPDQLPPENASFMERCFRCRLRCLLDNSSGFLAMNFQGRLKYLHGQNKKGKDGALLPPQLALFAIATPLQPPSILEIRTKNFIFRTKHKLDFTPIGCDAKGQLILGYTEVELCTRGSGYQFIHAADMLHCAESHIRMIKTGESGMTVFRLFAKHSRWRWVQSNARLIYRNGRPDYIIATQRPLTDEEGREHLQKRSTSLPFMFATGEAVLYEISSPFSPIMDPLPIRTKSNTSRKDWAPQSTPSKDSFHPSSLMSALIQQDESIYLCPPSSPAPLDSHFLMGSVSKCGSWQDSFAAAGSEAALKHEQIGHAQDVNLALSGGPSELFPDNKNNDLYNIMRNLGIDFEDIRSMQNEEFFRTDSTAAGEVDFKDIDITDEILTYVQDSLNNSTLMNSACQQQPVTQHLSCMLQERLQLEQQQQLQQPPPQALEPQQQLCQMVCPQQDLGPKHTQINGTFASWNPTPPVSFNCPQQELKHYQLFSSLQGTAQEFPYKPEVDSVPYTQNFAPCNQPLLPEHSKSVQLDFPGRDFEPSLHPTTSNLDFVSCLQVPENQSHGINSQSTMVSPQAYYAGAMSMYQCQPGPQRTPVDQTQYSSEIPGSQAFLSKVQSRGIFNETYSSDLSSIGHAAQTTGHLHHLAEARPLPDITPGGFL
T1 sequence (P53762 2-791 partner): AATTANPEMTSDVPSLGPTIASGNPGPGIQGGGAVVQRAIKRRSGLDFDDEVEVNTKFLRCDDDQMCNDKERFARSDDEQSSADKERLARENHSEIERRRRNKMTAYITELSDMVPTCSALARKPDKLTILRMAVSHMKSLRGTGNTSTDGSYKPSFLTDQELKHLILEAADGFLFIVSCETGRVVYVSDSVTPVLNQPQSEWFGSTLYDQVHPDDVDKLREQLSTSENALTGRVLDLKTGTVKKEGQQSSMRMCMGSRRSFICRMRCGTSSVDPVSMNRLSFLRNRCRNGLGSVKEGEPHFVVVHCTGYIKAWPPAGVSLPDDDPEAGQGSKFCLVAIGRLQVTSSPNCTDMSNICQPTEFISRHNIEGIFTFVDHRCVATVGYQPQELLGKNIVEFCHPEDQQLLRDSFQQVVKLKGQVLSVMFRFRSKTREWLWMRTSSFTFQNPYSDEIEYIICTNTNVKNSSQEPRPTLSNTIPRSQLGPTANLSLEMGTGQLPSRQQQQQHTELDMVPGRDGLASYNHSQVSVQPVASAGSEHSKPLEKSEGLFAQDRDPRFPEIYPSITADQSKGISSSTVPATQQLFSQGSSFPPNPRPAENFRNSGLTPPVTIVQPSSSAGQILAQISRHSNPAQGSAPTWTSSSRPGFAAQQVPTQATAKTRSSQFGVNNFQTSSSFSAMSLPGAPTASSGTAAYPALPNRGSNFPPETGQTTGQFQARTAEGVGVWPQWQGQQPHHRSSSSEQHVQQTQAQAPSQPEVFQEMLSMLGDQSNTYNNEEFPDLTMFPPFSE

Kd: 50.1 ± 22.1 nM
SMILES: CCS(=O)(=O)c1ccc2oc(-c3ccc4ccccc4c3)nc2c1 [compound 1, ezutromid]
